# A melting point compilation (Tetko et al.; mined from patent text by program, amines drawn as free bases though some values may be those of a salt)
row,melting point,Structure (SMILES)
1,90 to 93 °C,Cc1cc(C#C[Si](C)(C)C)ccc1-n1c(C(F)(F)F)nn(C)c1=S
2,215 °C,OCC1OC(n2cnc3c(Nc4ccc(Cl)cc4)ccnc32)C(O)C1O (stereo not given)
3,121 to 122 °C,COc1ccc(OC)c2c1CCC(O)(CCO)C2 (stereo not given)
4,86 to 91 °C,c1cnc(-c2cc(C3CC3)on2)cn1
5,73 to 75 °C,CC1CCN(c2cc(C(C)(C)C)no2)C1=O (stereo not given)
6,216 to 217 °C,COc1ccc(CNc2nc(-c3ccccc3)c(-c3ccc(=O)n(C(C)C)n3)nc2C(=O)O)cc1
7,127 to 128 °C,COc1cc(CN2CCc3cc(O)c(OC)cc3C2)cc(OC)c1
8,265 to 266 °C,CCCc1nnc2c(=O)n(C)c3ccc(Cl)cc3n12
9,221 to 222 °C,Clc1cccc(-c2ccc3cnc(Nc4ccc(N5CCOCC5)nc4)nn23)c1
10,113 to 116 °C,c1cc(CC[C@H]2CNCCN2)ccn1
11,201 to 202 °C,CC(C)(C)OC(=O)C(C)(C)ON=C(C(=O)O)c1cccs1
12,131 to 132 °C,CCSCCNC(=O)Nc1ccccc1CCc1cc(C(C)(C)C)c(O)c(C(C)(C)C)c1
13,151 to 152 °C,CCCCCn1c(=O)c2cc(C(=O)OCC)cn2c2ccccc21
14,198 to 199 °C,Cc1noc(NC(=O)N2CCN(c3cc(-c4ccc(F)cc4F)ncn3)CC2)c1C
15,231 to 233 °C,CNC(=O)c1cncc(NC(=O)N2CCC3(CCc4ccc(F)cc4O3)CC2)c1
16,149 to 151 °C,Cc1c(CC(=O)OCCCCO)cc(-c2ccc(S(C)(=O)=O)cc2)n1-c1ccc(F)cc1
17,104 to 107 °C,Cc1nc2c(-c3cccc(N4CCN(CCO)CC4)c3)cnn2c(N)c1-c1ccc(F)c(Cl)c1
18,213 to 214 °C,Fc1ccc(-c2nn3c(c2-c2ccncc2)NCC3)cc1
19,185 to 190 °C,NC(=O)c1c[nH]cc1-c1cccc(Cl)c1Cl
20,128 to 129 °C,Cc1cccc(OCC(F)(F)F)c1NC(=O)CCl
21,309 to 311 °C,O=C1CCC(N2Cc3c(CNC(=O)NC4CCCCC4)cccc3C2=O)C(=O)N1 (stereo not given)
22,60 to 61 °C,COC(C)OC(=O)C1CC(=O)N(c2ccc(C(C)(C)C)cc2)C1 (stereo not given)

row,melting point,Structure (SMILES)
1,171 to 172 °C,Cc1cccnc1C(=O)c1[nH]c2cc(Cl)ccc2c1N
2,144 to 147 °C,O=C(c1ccccc1)N1CCc2[nH]c3cccc(CCCO)c3c2CC1
3,80 to 82 °C,O=c1oc(-c2cc(C(F)(F)F)cc(C(F)(F)F)c2)cc(O)c1SCc1ccccc1
4,170 to 172 °C,CC(C)c1cc(C(=O)NCc2ccccc2)c(N)s1
5,80 to 81 °C,C=C(CCCCCCCCC)C(N)=O
6,138 to 140 °C,CCNC(=O)[C@@H]1C[C@H](OS(C)(=O)=O)CN1C(=O)OC(C)(C)C
7,102 to 105 °C,CC(C)(C)OC(=O)C(C)(C)ON=C1C=CC=CC1CC(=O)O (stereo not given)
8,122 to 123 °C,COc1ccc2ccc3c(c2c1)C(CC#N)CCO3 (stereo not given)
9,210 °C,Cc1c(C(=O)Nc2ccc(N3CCC(N4CCOCC4)CC3)c(C#N)c2)cnn1-c1cccc(Cl)c1
10,178 to 179 °C,COc1ccc(CNC(=O)c2ccc3n2Cc2ccccc2N(C(=O)c2ccc(-c4ccccc4C)c(OC)c2)C3)cc1
11,103 to 105 °C,CCc1ncnc2ccc(C#Cc3cc(OC)ccc3OC)cc12
12,230 to 231 °C,Cn1c(COc2ccc(CC3SC(=O)NC3=O)cc2)nc2ccccc21 (stereo not given)
13,225 °C,N#Cc1nc2cccc(O)c2s1
14,70 to 71 °C,Cn1cccc1C(=NOCc1cccs1)C(=O)O
15,142 °C,CCN1C(=O)CN(c2ccccc2)C1=O
16,184 to 190 °C,O=C(Nc1ccccc1Oc1ccc(C(=O)O)c(C(=O)O)c1)c1cccc([N+](=O)[O-])c1
17,95 °C,CCOC(=O)c1ccccc1N(CC(=O)N(C)c1ccccc1)C(=O)C(F)(F)F
18,55 to 56 °C,CC(C)(C)c1cc2c(s1)C(=O)N(c1cccc(Br)c1CO)C2
19,253 to 256 °C,COc1cc2c(c(OC)c1OC)C=C(C=CC(=O)N1CCC(C3CCN(C(=O)C=CC4=Cc5c(cc(OC)c(OC)c5OC)CC4)CC3)CC1)CC2
20,169 °C,O=C(NCCO)c1cccc(-c2cccc3nc(C(O)c4cccc(C(F)(F)F)c4)cn23)c1 (stereo not given)
21,62.5 to 64.5 °C,CCCC(=NOc1ccc(Cl)cc1)c1cc(Cl)ccc1NS(=O)(=O)C(F)(F)F
22,161 to 164 °C,c1ccc(COc2cccc(CSc3nc4cnccc4[nH]3)c2)cc1

row,melting point,Structure (SMILES)
1,130 to 132 °C,COC(=O)C1=C(C)NC(C)=C(C(=O)OCCCCCCCCCCCN2C(=O)c3ccccc3C2=O)C1c1cccc([N+](=O)[O-])c1 (stereo not given)
2,119 to 121 °C,CCOC(=O)C(=O)c1ccc2c(c1)CCCO2
3,163 to 165 °C,CS(=O)(=O)Nc1cccc2c(O)ccc(N=Nc3cccc(S(=O)(=O)NCCCCCCBr)c3)c12
4,100 °C,Cc1cnn(CN(C(=O)CCl)c2c(C)cccc2C)c1
5,95 to 96 °C,COc1ccc(CCCc2ccc(O)cc2)c(O)c1
6,99 to 101 °C,COCc1cnc2c(NC(=O)c3c(Cl)cccc3Cl)cc(C)cc2c1-n1ccnc1
7,126 to 128 °C,O=C1CCC(N2Cc3c(OCc4ccc(CN5CCC(F)(F)C5)cc4)cccc3C2=O)C(=O)N1 (stereo not given)
8,116 to 118 °C,O=C(c1ccc(C(F)(F)F)cc1)c1cc(O)c(O)c([N+](=O)[O-])c1
9,176 to 182 °C,OCC1OC(n2cnc3c(NC4CCN(Cc5ccccc5)CC4)ncnc32)C(O)C1O (stereo not given)
10,112 to 114 °C,CO[C@@H]([C@H](OC)[C@H](O)COS(C)(=O)=O)[C@H](O)COS(C)(=O)=O
11,108 to 109 °C,CC(C)(C)OC(=O)N(Cc1ccccc1)[C@H](COP(=O)(Oc1ccccc1)Oc1ccccc1)C(=O)O
12,180 to 183 °C,CS(=O)(=O)c1ccc(C(=O)O)c(Cl)c1OC1COC1
13,67 °C,C=CCc1c([N+](=O)[O-])ccc2c1OC(CO)CO2 (stereo not given)
14,294 °C,O=C(NNC(=O)c1ccc([N+](=O)[O-])cc1)c1ccc([N+](=O)[O-])cc1
15,69 to 71 °C,CC(=O)c1cccc(-n2ccnc2)c1
16,124 °C,COC1=Cc2ccccc2Nc2ccccc21
17,299 °C,Cc1ccc(-n2nc3c4cc(Cc5ccccc5)ccc4[nH]c(=O)n3c2=O)cc1
18,190 °C,COc1ccc(N2C(=O)C(N=[N+]=[N-])C2c2ccc(C(=O)O)cc2)cc1 (stereo not given)
19,120 to 121 °C,Clc1ccc2ncc(Cl)nc2c1
20,215 to 217 °C,CCCn1c(COCC)nc2c(N)nc3cc(OC4CCN(S(C)(=O)=O)CC4)ccc3c21
21,125 to 127 °C,N#Cc1ccc(OCCCCCCOc2cccc(-c3cc4ccc(C#N)cc4o3)c2)cc1
22,178 to 180 °C,Nc1nc2c(s1)CCN(CC=Cc1cccc3ccccc13)CC2

row,Structure (SMILES),melting point
1,CC1(C)CCC(C)(C)c2cc(-c3cc(-c4ccc(C(=O)O)cc4)ccc3OCCCN)ccc21,243 °C
2,CCc1cc2c(s1)-n1c(nnc1CNC(=O)Nc1cccc(C)c1)CN=C2c1ccccc1Cl,260 to 262 °C
3,COc1c(Cc2c[nH]cn2)cccc1C(N)=O,160 °C
4,CS(=O)(=O)Nc1ccc2c(c1)c(C(=O)C(=O)NC1=CC(=O)OC1)cn2Cc1ccc(C(F)(F)F)cc1,267 to 269 °C
